Experiment [1] in a line: Bitterness threshold by sensory evaluation test (panel of 9 experts). The format is in vivo. Particulars: for bitterness at the maximum concentration: at 0.1% by weight, the maximum concentration (1000 times the acetal threshold). As for the experimental part: 100 mg of 5-hydroxymethyl-2-furaldehyde bis(5-formylfurfuryl)acetal obtained in Example 1 was dissolved in 1 mL of ethanol, and 100 mL of water was added to produce 0.1% by weight of a 1 wt. % ethanol solution. This solution was diluted 10-fold with water repeatedly to prepare samples for evaluation. In consideration of the taste of ethanol itself, a 1 wt. % ethanol solution was prepared and diluted 10-fold with water repeatedly to prepare blanks respectively corresponding to the samples for evaluation. The evaluation was performed by a panel of 9 experts. The sensory evaluation test was performed from a sample/blank having a lower concentration. In the order of blanks to samples, the experts held 200 mg of each sample/blank in the mouth and evaluated the difference in taste.

Experiment [2] can be described thus: Sensory evaluation of the flavor improving agents for the sugar-free sweetener. It is filed as in vivo. On the procedure:
A sugar-free sweetener having the formulation shown in Table 2 was obtained, and 12 g of the sugar-free sweetener was dissolved in 1 kg of ion exchanged water to obtain a 1.2 wt. % aqueous solution. 60 mg of the flavor improving agent in Example 2 was added to 300 g of the aqueous solution to obtain a sugar-free sweetener solution sample containing 0.02% by weight of the flavor improving agent. The content of 5-hydroxymethyl-2-furaldehyde bis(5-formylfurfuryl)acetal in the sugar-free sweetener was 0.00014% by weight.
This sample was evaluated with regard to the items shown in Table 3 by a sensory evaluation method of comparing a sample with a control product. The evaluation was performed by a panel of 5 trained experts. The sample was evaluated with the points in the range of −3 to +3, with setting the control product at 0 point. The control product was not provided with a flavor improving agent (provided with ethanol).
The numerals in the table are the averages of the 5 experts.

The conditions of experiment [3]: literature report; cited from earlier work.
Experiment [4] can be described thus: Sensory evaluation of the flavor improving agents for the coffee drink. It is filed as in vivo. As to conditions: summary of Table 10. On the procedure:
60 mg of the flavor improving agent in Example 2 was added to 300 g of commercially available canned coffee to obtain a coffee drink containing 0.02% by weight of the flavor improving agent. The content of 5-hydroxymethyl-2-furaldehyde bis(5-formylfurfuryl)acetal in this coffee drink was 0.00014% by weight.
This coffee drink was evaluated with regard to the items shown in Table 10 by a sensory evaluation method of comparing a sample with a control product. The evaluation was performed by a panel of 5 trained experts. Sensory evaluation of the coffee drink was carried out with the points in the range of −3 to +3, with setting the control product at 0 point, in the same manner as in Example 9. The control product was not provided with a flavor improving agent (provided with ethanol).

Setting [5] is: same type of test as Example 9, agents prepared as in Example 2 with formulas (2) and (3), also with 100 times the amount.
Setting [6] is: sugar-free sweetener solution, summary of Table 3.

Consider `O=Cc1ccc(COC(OCc2ccc(C=O)o2)c2ccc(CO)o2)o1` [acetal compound of the present invention, 5-hydroxymethyl-2-furaldehyde bis(5-formylfurfuryl)acetal], for which the bitterness threshold amounted to 0.0001% in experiment [1] (1 ppm expressed in %); 0.0001 % by weight in experiment [1] (1 ppm expressed in % by weight); 1 ppm in experiment [1] (10-fold dilutions in water vs ethanol blanks, panel of 9 experts). In experiment [1] (converted from 1 ppm), the “bitterness threshold converted to the molar concentration” value was “about 10^−3 mM”.
Turning to `O=Cc1ccc(CO)o1` [formula (2), 5-hydroxymethyl-2-furaldehyde], the “bitterness at the maximum concentration” value in experiment [1] is on record as “did not provide bitterness”. Also, in experiment [2] (setting [5]), the “flavor improving effect in words” value was “None of the agents exhibited any flavor improving effect and provided various unpleasant tastes including astringency”. Also, the reported taste entry in experiment [3] is reported as “unpleasant taste”.
For the compound `O=Cc1ccc(COCc2ccc(C=O)o2)o1` [formula (3)], in experiment [1], the “bitterness at the maximum concentration” value is listed as “did not provide bitterness”. Further, the “flavor improving effect in words” value in experiment [2] (setting [5]) was “None of the agents exhibited any flavor improving effect and provided various unpleasant tastes including astringency”. The reported taste result in experiment [3] is on record as “unpleasant taste”.
For `C[C@@H]1O[C@@H](O[C@H]2[C@H](Oc3cc(O)c4c(c3)O[C@H](c3ccc(O)cc3)CC4=O)O[C@H](CO)[C@@H](O)[C@@H]2O)[C@H](O)[C@H](O)[C@H]1O` [naringin], the “flavor effect in words” value in experiment [4] was “medicine-like unnatural bitterness and are poor in attractiveness”.
As to `O.O.O.O.O.O.O.O.O.O.O.O.O=S(=O)([O-])[O-].O=S(=O)([O-])[O-].[Al+3].[K+]` [potassium alum], the “flavor improving effect in words” value in experiment [2] (setting [6]) was “poor effect of reducing astringency or improving the sense of volume”.
With diheterolevulosan II, the “flavor effect in words” value in experiment [4] is “medicine-like unnatural bitterness and are poor in attractiveness”.
With αG hesperidin, the “flavor improving effect in words” value in experiment [2] (setting [6]) is listed as “poor effect of reducing astringency or improving the sense of volume”.

(Values after patent US8053467B2, “Flavor improving agent, and food and drink containing the same” (Takasago International Corporation, priority 2006, dated 2011).)
